Results published in article PMC8162404, “Proteomimetic surface fragments distinguish targets by function” (Chemical Science, 2020).
Read-outs that look alike come from different tables or passages of the source.

How the values were obtained:
Gal-1 = biological target: T1, Gal-1 (Homo sapiens, UniProt P09382); assay: Pull-down assay with immobilized protein and LSM libraries; assay type: binding; settings: 1:1 binding assumed, read-out: Surface mapping KD (apparent)
T1 construct: made in house; host or cells: E. coli BL21(DE3)
T1 sequence (P09382 whole entry): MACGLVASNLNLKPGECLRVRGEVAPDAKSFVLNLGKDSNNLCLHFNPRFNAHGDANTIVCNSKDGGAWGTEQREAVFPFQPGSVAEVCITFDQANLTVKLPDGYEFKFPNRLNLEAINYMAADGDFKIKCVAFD
Procedure: (§1) Pull-down assays with immobilized test proteins and foldameric LSM libraries were carried out. Proteins were equilibrated with LSM probes, and equilibrium bound fractions (FB) were determined from the unbound fractions measured by HPLC-MS methods. Hits were corrected with background binding of the resin. The protocol allowed all binding events to equilibrate irrespective of affinity, specificity, and binding kinetics. This was essential to judge overall druggability and promiscuity. Importantly, the concentration of protein and the total concentration of foldameric LSMs were equimolar, which minimized competition between the probes. This experimental setup approximated independent binding of individual library members. Results were visualized as heat maps of dissociation constants (Fig. 3).
(§2) Pull-down assay and data analysis
(§3) Pull-down assay. LSM sublibraries were screened separately as previously described.(2) Experiments were performed in the following buffers: (i) 20 mM pH 7.4 HEPES, 150 mM NaCl, 5 mM CaCl2 for CaM; (ii) 50 mM pH 7.4 HEPES, 150 mM NaCl, 1 mM TCEP, 1 mM CaCl2 for S100 proteins; (iii) 20 mM pH 7.4 HEPES, 150 mM NaCl, 1 mM TCEP for Gal-1 and (iv) 20 mM pH 7.4 HEPES, 150 mM NaCl for RecQ-WH. Assays were performed in paper filter spin cups (Thermo Scientific) with sample volumes of 100 µl. Hexahistidine-tagged proteins were immobilized on previously washed Co-NTA resin (TALON, Takara Bio USA, Inc., Mountain View, CA) in 64 µM final concentration. LSM sublibrary was added, in which each of the 64 library members were used at a concentration of 1 µM. Samples were incubated at room temperature for 30 min with shaking at 100 rpm. Then, samples were centrifuged at 1000 rpm for 2 min and washed with 100 µl pull-down buffer to remove unbound compounds.
(§4) The control experiments were performed using the same compounds and the resin but without the immobilized protein. In case of competitive assays, competitor peptides were added to LSM sublibrary samples in 200 µM final concentration. In the case of Gal-1, lactose (competitor) was used in a concentration of 10 mM. Experiments were performed at least twice. Mean […]
(§5) LC-MS methods and parameters. HPLC/ESI-MS analysis was used to characterize the samples from the pull-down assay. LC-MS analysis was performed with a Thermo Scientific Dionex UltiMate 3000 HPLC system interfaced to an LTQ ion trap mass spectrometer (Thermo Electron Corp., San Jose, CA, USA). Samples were injected onto an Aeris Widepore XB-C18 (250 x 4.6 mm) analytical HPLC column using gradient elution 5-80 % solution B during 25 minutes. For pull-down samples, eluent composition was 0.1% acetic acid in distilled water (Solution A) and 0.1% acetic acid in acetonitrile (solution B). Mass spectra were acquired in full scan mode from 200 to 2000 m/z range. For overlapping peaks, selective reaction monitoring (SRM) was […]
(§6) MS data analysis. Thermo Xcalibur 2.2 software was used for peak identification and integration. The majority of the foldameric fragments could be resolved independently via HPLC-MS/MS measurements based on molecular weight, MS fragmentation pattern and retention time. Peaks of some foldamers with β3-hIle or β3-hLeu in position R2 could not be resolved, these were integrated and averaged. In the processing method, each sample component was associated to a chromatographic peak based on previously identified mass (m/z) and retention time (ref (2) and Table S7-10). Using ICIS peak detection algorithm, the general detection and integration criteria were: smoothing points: 5, baseline window: 80, area noise factor: 5, peak noise factor: 10. Using these processing setups, all raw data files were reprocessed together and analyzed. Errors in peak identification during the automatic processing were corrected manually.
(§7) Calculation of the discussed parameters
(§8) 1. Bound fractions (FB.) were calculated from the HPLC-MS intensity loss of the LSM probes compared to the control where no protein was immobilized to the resin: […]

S100B = biological target: T2, S100B (Homo sapiens, UniProt P04271); assay: as above; assay type: binding; settings: 1:1 binding assumed, read-out: Surface mapping KD (apparent)
T2 construct: made in house; host or cells: Escherichia coli BL21(DE3)
T2 sequence (P04271 1-92): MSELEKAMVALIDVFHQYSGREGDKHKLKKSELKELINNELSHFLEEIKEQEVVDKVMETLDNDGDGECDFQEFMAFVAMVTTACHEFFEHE
Procedure: as §1, §2, §3, §4, §5, §6, §7, §8

| SMILES | Kd (S100B; H12 library) [µM] | other results |
| --- | --- | --- |
| C[C@@H](CC(=O)N[C@H]1CCC[C@@H]1C(=O)N[C@H]1CCC[C@@H]1C(=O)N[C@H](CC(=O)N[C@H]1CCC[C@@H]1C(=O)N[C@H]1CCC[C@@H]1C(N)=O)Cc1ccccc1)NC(=O)[C@H]1CCC[C@@H]1NC(=O)[C@H]1CCC[C@@H]1N [H12 AF] | 114 | Kd (Gal-1; H12 library): 428 µM |
| CC[C@H](C)[C@@H](CC(=O)N[C@H]1CCC[C@@H]1C(=O)N[C@H]1CCC[C@@H]1C(N)=O)NC(=O)[C@H]1CCC[C@@H]1NC(=O)[C@H]1CCC[C@@H]1NC(=O)C[C@H](C)NC(=O)[C@H]1CCC[C@@H]1NC(=O)[C@H]1CCC[C@@H]1N [H12 AI] | 348 | Kd (Gal-1; H12 library): 436 µM |
| C[C@@H](CC(=O)N[C@H]1CCC[C@@H]1C(=O)N[C@H]1CCC[C@@H]1C(=O)N[C@@H](CCCCN)CC(=O)N[C@H]1CCC[C@@H]1C(=O)N[C@H]1CCC[C@@H]1C(N)=O)NC(=O)[C@H]1CCC[C@@H]1NC(=O)[C@H]1CCC[C@@H]1N [H12 AK] | 380 | Kd (Gal-1; H12 library): 303 µM |
| CC(C)C[C@@H](CC(=O)N[C@H]1CCC[C@@H]1C(=O)N[C@H]1CCC[C@@H]1C(N)=O)NC(=O)[C@H]1CCC[C@@H]1NC(=O)[C@H]1CCC[C@@H]1NC(=O)C[C@H](C)NC(=O)[C@H]1CCC[C@@H]1NC(=O)[C@H]1CCC[C@@H]1N [H12 AL] | 348 | Kd (Gal-1; H12 library): 436 µM |
| C[C@@H](CC(=O)N[C@H]1CCC[C@@H]1C(=O)N[C@H]1CCC[C@@H]1C(=O)N[C@@H](CCCNC(=N)N)CC(=O)N[C@H]1CCC[C@@H]1C(=O)N[C@H]1CCC[C@@H]1C(N)=O)NC(=O)[C@H]1CCC[C@@H]1NC(=O)[C@H]1CCC[C@@H]1N [H12 AR] | 219 | – |
| C[C@@H](CC(=O)N[C@H]1CCC[C@@H]1C(=O)N[C@H]1CCC[C@@H]1C(=O)N[C@H](CC(=O)N[C@H]1CCC[C@@H]1C(=O)N[C@H]1CCC[C@@H]1C(N)=O)Cc1ccc(O)cc1)NC(=O)[C@H]1CCC[C@@H]1NC(=O)[C@H]1CCC[C@@H]1N [H12 AY] | 318 | Kd (Gal-1; H12 library): 422 µM |
| NC(=O)[C@H]1CCC[C@@H]1NC(=O)[C@H]1CCC[C@@H]1NC(=O)C[C@H](CC(=O)O)NC(=O)[C@H]1CCC[C@@H]1NC(=O)[C@H]1CCC[C@@H]1NC(=O)C[C@H](Cc1ccccc1)NC(=O)[C@H]1CCC[C@@H]1NC(=O)[C@H]1CCC[C@@H]1N [H12 FD] | 371 | Kd (Gal-1; H12 library): 251 µM |
| CC[C@H](C)[C@@H](CC(=O)N[C@H]1CCC[C@@H]1C(=O)N[C@H]1CCC[C@@H]1C(=O)N[C@@H](CCCCN)CC(=O)N[C@H]1CCC[C@@H]1C(=O)N[C@H]1CCC[C@@H]1C(N)=O)NC(=O)[C@H]1CCC[C@@H]1NC(=O)[C@H]1CCC[C@@H]1N [H12 IK] | 87 | – |
| CC[C@H](C)[C@@H](CC(=O)N[C@H]1CCC[C@@H]1C(=O)N[C@H]1CCC[C@@H]1C(=O)N[C@H](CC(=O)N[C@H]1CCC[C@@H]1C(=O)N[C@H]1CCC[C@@H]1C(N)=O)[C@@H](C)O)NC(=O)[C@H]1CCC[C@@H]1NC(=O)[C@H]1CCC[C@@H]1N [H12 IT] | 216 | – |
| C[C@@H](CC(=O)N[C@H]1CCC[C@@H]1C(=O)N[C@H]1CCC[C@@H]1C(N)=O)NC(=O)[C@H]1CCC[C@@H]1NC(=O)[C@H]1CCC[C@@H]1NC(=O)C[C@H](CCCCN)NC(=O)[C@H]1CCC[C@@H]1NC(=O)[C@H]1CCC[C@@H]1N [H12 KA] | 243 | – |
| NCCCC[C@@H](CC(=O)N[C@H]1CCC[C@@H]1C(=O)N[C@H]1CCC[C@@H]1C(=O)N[C@@H](CC(N)=O)CC(=O)N[C@H]1CCC[C@@H]1C(=O)N[C@H]1CCC[C@@H]1C(N)=O)NC(=O)[C@H]1CCC[C@@H]1NC(=O)[C@H]1CCC[C@@H]1N [H12 KN] | 274 | – |
| C[C@@H](O)[C@@H](CC(=O)N[C@H]1CCC[C@@H]1C(=O)N[C@H]1CCC[C@@H]1C(N)=O)NC(=O)[C@H]1CCC[C@@H]1NC(=O)[C@H]1CCC[C@@H]1NC(=O)C[C@H](CCCCN)NC(=O)[C@H]1CCC[C@@H]1NC(=O)[C@H]1CCC[C@@H]1N [H12 KT] | 226 | – |
| CC(C)C[C@@H](CC(=O)N[C@H]1CCC[C@@H]1C(=O)N[C@H]1CCC[C@@H]1C(=O)N[C@@H](CO)CC(=O)N[C@H]1CCC[C@@H]1C(=O)N[C@H]1CCC[C@@H]1C(N)=O)NC(=O)[C@H]1CCC[C@@H]1NC(=O)[C@H]1CCC[C@@H]1N [H12 LS] | 258 | – |
| CC(C)C[C@@H](CC(=O)N[C@H]1CCC[C@@H]1C(=O)N[C@H]1CCC[C@@H]1C(=O)N[C@H](CC(=O)N[C@H]1CCC[C@@H]1C(=O)N[C@H]1CCC[C@@H]1C(N)=O)[C@@H](C)O)NC(=O)[C@H]1CCC[C@@H]1NC(=O)[C@H]1CCC[C@@H]1N [H12 LT] | 216 | – |
| N=C(N)NCCC[C@@H](CC(=O)N[C@H]1CCC[C@@H]1C(=O)N[C@H]1CCC[C@@H]1C(=O)N[C@@H](CC(N)=O)CC(=O)N[C@H]1CCC[C@@H]1C(=O)N[C@H]1CCC[C@@H]1C(N)=O)NC(=O)[C@H]1CCC[C@@H]1NC(=O)[C@H]1CCC[C@@H]1N [H12 RN] | 217 | – |
| N=C(N)NCCC[C@@H](CC(=O)N[C@H]1CCC[C@@H]1C(=O)N[C@H]1CCC[C@@H]1C(=O)N[C@@H](CCC(N)=O)CC(=O)N[C@H]1CCC[C@@H]1C(=O)N[C@H]1CCC[C@@H]1C(N)=O)NC(=O)[C@H]1CCC[C@@H]1NC(=O)[C@H]1CCC[C@@H]1N [H12 RQ] | 210 | – |
| NCCCC[C@@H](CC(=O)N[C@H]1CCC[C@@H]1C(=O)N[C@H]1CCC[C@@H]1C(N)=O)NC(=O)[C@H]1CCC[C@@H]1NC(=O)[C@H]1CCC[C@@H]1NC(=O)C[C@H](CO)NC(=O)[C@H]1CCC[C@@H]1NC(=O)[C@H]1CCC[C@@H]1N [H12 SK] | 401 | – |
| C[C@@H](O)[C@@H](CC(=O)N[C@H]1CCC[C@@H]1C(=O)N[C@H]1CCC[C@@H]1C(=O)N[C@@H](CCCCN)CC(=O)N[C@H]1CCC[C@@H]1C(=O)N[C@H]1CCC[C@@H]1C(N)=O)NC(=O)[C@H]1CCC[C@@H]1NC(=O)[C@H]1CCC[C@@H]1N [H12 TK] | 253 | – |
| C[C@@H](CC(=O)N[C@H]1CCCC[C@@H]1C(=O)N[C@H]1CCCC[C@@H]1C(=O)N[C@@H](CC(N)=O)CC(=O)N[C@H]1CCCC[C@@H]1C(N)=O)NC(=O)[C@H]1CCCC[C@@H]1N [H14 AN] | – | Kd (Gal-1; H14 library): 303 µM |
| N=C(N)NCCC[C@@H](CC(=O)N[C@H]1CCCC[C@@H]1C(N)=O)NC(=O)[C@H]1CCCC[C@@H]1NC(=O)[C@H]1CCCC[C@@H]1NC(=O)C[C@H](CC(=O)O)NC(=O)[C@H]1CCCC[C@@H]1N [H14 DR] | – | Kd (S100B; H14 library): 193 µM |
| NC(=O)[C@H]1CCCC[C@@H]1NC(=O)C[C@H](Cc1ccc(O)cc1)NC(=O)[C@H]1CCCC[C@@H]1NC(=O)[C@H]1CCCC[C@@H]1NC(=O)C[C@H](CC(=O)O)NC(=O)[C@H]1CCCC[C@@H]1N [H14 DY] | – | Kd (S100B; H14 library): 461 µM |
| NCCCC[C@@H](CC(=O)N[C@H]1CCCC[C@@H]1C(N)=O)NC(=O)[C@H]1CCCC[C@@H]1NC(=O)[C@H]1CCCC[C@@H]1NC(=O)C[C@H](CCC(=O)O)NC(=O)[C@H]1CCCC[C@@H]1N [H14 EK] | – | Kd (S100B; H14 library): 324 µM |
| N=C(N)NCCC[C@@H](CC(=O)N[C@H]1CCCC[C@@H]1C(N)=O)NC(=O)[C@H]1CCCC[C@@H]1NC(=O)[C@H]1CCCC[C@@H]1NC(=O)C[C@H](CCC(=O)O)NC(=O)[C@H]1CCCC[C@@H]1N [H14 ER] | – | Kd (S100B; H14 library): 349 µM |
| NCCCC[C@@H](CC(=O)N[C@H]1CCCC[C@@H]1C(=O)N[C@H]1CCCC[C@@H]1C(=O)N[C@@H](CCC(=O)O)CC(=O)N[C@H]1CCCC[C@@H]1C(N)=O)NC(=O)[C@H]1CCCC[C@@H]1N [H14 KE] | – | Kd (S100B; H14 library): 324 µM |
| CSCC[C@@H](CC(=O)N[C@H]1CCCC[C@@H]1C(=O)N[C@H]1CCCC[C@@H]1C(=O)N[C@@H](CCC(=O)O)CC(=O)N[C@H]1CCCC[C@@H]1C(N)=O)NC(=O)[C@H]1CCCC[C@@H]1N [H14 ME] | – | Kd (Gal-1; H14 library): 250 µM |
